The record followed here is patent US20120010266A1, “TBC1D7 AS TUMOR MARKER AND THERAPEUTIC TARGET FOR CANCER” (Oncotherapy Science Inc.,, priority 2008, published 2012).

Series [1] has as its system p-rpS6 (Ser235/236), downstream target of mTORC1. The series is described as follows: Effect of TSC1 knockdown on mTORC1 pathway in LC319 cells (phosphorylation of rpS6). The series is classed as cell-based, human. To be noted: LC319 cells treated with siRNA against TSC1.
The next series deals with TSC1. In words: si-TSC1 treatment of LC319 cells: TSC1 and TBC1D7 transcript and protein levels (semiquantitative RT-PCR, western blot). In kind it is cell-based, human. To be noted: for TBC1D7 protein level: LC319 cells treated with siRNA against TSC1, western blot. On the procedure:
Total RNA was extracted from cultured cells and clinical tissues using Trizol reagent (Life Technologies, Inc.) according to the manufacturer's protocol. Extracted RNAs were treated with DNase I (Nippon Gene) and reversely-transcribed using oligo (dT) primer and SuperScript II reverse transcriptase (Invitrogen). Semiquantitative RT-PCR experiments were carried out with the following synthesized TBC1D7-specific primers or with beta-actin (ACTB)-specific primers as an internal control: TBC1D7, 5′-[…]-3′ (SEQ ID NO.: 5) or 5′-[…]-3′ (SEQ ID NO.:15) and 5′-[…]-3′ (SEQ ID NO.: 6); TSC1, 5′-[…]-3′ (SEQ ID NO.:16) and 5′-[…]-3′ (SEQ ID NO.:17); ACTB, 5′-[…]-3′ (SEQ ID NO.: 7) and 5′-[…]-3′ (SEQ ID NO.: 8). PCR reactions were optimized for the number of cycles to ensure product intensity within the logarithmic phase of amplification.
Cells were lysed in lysis buffer; 50 mM Tris-HCl (pH 8.0), 150 mM NaCl, 0.5% NP-40, 0.5% deoxycholate-Na, 0.1% SDS, plus protease inhibitor (Protease Inhibitor Cocktail Set III; Calbiochem). It was used an ECL western-blotting analysis system (GE Healthcare Bio-sciences), as previously described (Takahashi K. et al. Cancer Res 2006; 66:9408-19).
Small interfering RNA (siRNA) duplexes (100 nM) were transfected into a NSCLC cell line, A549 and LC319, using 24 microL of Lipofectamine 2000 (Invitrogen) following the manufacturer's protocol. The transfected cells were cultured for 7 days, and the number of colonies was counted by Giemsa staining, and viability of cells was evaluated by 3-(4,5-dimethylthiazol-2-yl)-2,5-diphenyltetrazolium bromide (MTT) assay (cell counting kit-8 solution; Dojindo Laboratories), at 7 days after transfection. To confirm suppression of TBC1D7 and TSC1 expression, western blotting using antibodies to TBC1D7 and TSC1 as well as semiquantitative RT-PCR with synthesized primers specific for TBC1D7 and TSC1 were carried out as described above. SiRNA sequences against human TBC1D7 and TSC1 were as follows, si-TBC1D7#3: GAACAGUGCAGAGAAGAUA (SEQ ID NO.:18), si-TBC1D7#4: GAUAAAGUUGUGAGUGGAU (SEQ ID NO.:19), and si-TSC1: CGACACGGCUGAUAACUGA (SEQ ID NO.:20). The present inventors also designed siRNA oligonucleotides against control-1 (LUC: luciferase gene from Photinus pyralis), 5′-CGUACGCGGAAUACUUCGA-3′ (SEQ ID NO.:21) and control-2 (EGFP: enhanced green fluorescent protein (GFP) gene, a mutant of Aequorea victoria GFP), 5′-GAAGCAGCACGACUUCUUC-3′ (SEQ ID NO.:22).

The target of series [2] is T1, endogenous TSC1 protein (human, lung cancer LC319 cells) (human, UniProt Q92574 1-1164, limits assumed).
T1 construct: Endogenous protein in LC319 cell extracts
T1 sequence: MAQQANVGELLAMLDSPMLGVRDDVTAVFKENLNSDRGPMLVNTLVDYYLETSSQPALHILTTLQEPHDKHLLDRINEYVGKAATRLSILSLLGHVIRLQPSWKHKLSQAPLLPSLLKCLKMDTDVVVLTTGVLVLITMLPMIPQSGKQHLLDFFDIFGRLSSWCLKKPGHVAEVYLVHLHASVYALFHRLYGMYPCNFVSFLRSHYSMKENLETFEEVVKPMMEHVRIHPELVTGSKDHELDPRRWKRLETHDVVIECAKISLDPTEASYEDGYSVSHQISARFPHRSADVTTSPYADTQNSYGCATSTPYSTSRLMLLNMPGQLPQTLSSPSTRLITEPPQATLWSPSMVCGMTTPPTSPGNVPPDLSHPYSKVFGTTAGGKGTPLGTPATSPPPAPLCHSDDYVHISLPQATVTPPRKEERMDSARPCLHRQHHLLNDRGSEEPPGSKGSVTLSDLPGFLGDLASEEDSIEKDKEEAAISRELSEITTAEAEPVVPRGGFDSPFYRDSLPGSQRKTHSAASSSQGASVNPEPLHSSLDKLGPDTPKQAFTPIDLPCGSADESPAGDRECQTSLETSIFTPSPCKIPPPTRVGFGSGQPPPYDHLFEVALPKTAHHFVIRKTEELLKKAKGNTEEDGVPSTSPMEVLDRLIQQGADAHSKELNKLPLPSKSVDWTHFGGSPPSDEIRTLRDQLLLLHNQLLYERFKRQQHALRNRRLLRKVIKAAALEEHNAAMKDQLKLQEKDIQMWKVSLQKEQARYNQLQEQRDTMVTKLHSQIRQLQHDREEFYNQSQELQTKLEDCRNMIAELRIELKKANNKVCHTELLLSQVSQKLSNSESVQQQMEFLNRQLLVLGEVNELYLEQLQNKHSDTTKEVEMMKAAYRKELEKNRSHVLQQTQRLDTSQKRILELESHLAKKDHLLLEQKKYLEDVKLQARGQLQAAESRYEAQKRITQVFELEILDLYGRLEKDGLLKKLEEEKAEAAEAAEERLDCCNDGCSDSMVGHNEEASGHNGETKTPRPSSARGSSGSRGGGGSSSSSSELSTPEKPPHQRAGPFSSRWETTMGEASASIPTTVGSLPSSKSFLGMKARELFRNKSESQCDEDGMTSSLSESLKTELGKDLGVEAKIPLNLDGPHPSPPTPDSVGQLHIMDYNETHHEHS
In words: immunoprecipitation experiments using LC319 cells, as the legend of FIG. 5A says. An excerpt: FIG. 5 depicts identification of TSC1-interacting region in TBC1D7 and inhibition of growth of lung cancer cells by dominant-negative peptides of TBC1D7. A, Left panel, Schematic drawing of six N-terminal Flag-tagged TBC1D7 partial protein constructs lacking either or both of the terminal regions. Right panels, Identification of the region in TBC1D7 that binds to TSC1 by immunoprecipitation experiments using LC319 cells. The TBC1D7₁₁₂₋₁₇₁ construct, which corresponds to a center region in TBC domain, was indicated to be TSC1-interacting region. B, Left top panel, Schematic drawing of three cell permeable peptides of TBC1D7 covering TBC1D7₁₁₂₋₁₇₁ that corresponds to the TSC1-interacting region in TBC1D7. B, Right top panels, Reduction of the complex formation between endogenous TSC1 and endogenous TBC1D7 proteins, detected by immunoprecipitation assay in LC319 cells that were treated with the 11R-TBC₁₅₂₋₁₇₁ peptides. C, MTT assay showing growth suppressive effect of 11R-TBC₁₅₂₋₁₇₁ peptides that were introduced into LC319 cells that expressed both TBC1D7 and TSC1 proteins. Bars, SD of triplicate assays. D, Left panels, Expressions of TBC1D7 and TSC1 proteins in lung cancer cell line LC319 and normal human lung fibroblast-derived CCD19Lu cells, examined by western blot analysis. […]

Series [3] concerns the target T2, flag-TBC1D7 (exogenous TBC1D7 transiently expressed in COS-7 cells) (human, UniProt Q9P0N9 1-293).
T2 construct: The only full-length flag vector described is pCAGGSn3FC, with 3xflag at the C-terminus, so it may be the same construct as m2; The order of the parts is therefore uncertain
T2 sequence: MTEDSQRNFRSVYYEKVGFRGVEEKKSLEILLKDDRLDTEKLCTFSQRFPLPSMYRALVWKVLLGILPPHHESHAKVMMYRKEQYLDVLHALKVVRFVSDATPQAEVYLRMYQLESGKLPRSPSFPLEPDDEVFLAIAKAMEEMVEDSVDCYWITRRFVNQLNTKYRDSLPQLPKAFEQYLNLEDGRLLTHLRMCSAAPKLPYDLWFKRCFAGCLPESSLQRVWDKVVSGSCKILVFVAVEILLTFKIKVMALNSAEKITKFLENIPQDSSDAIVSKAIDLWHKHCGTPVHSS
The series is described as follows: co-immunoprecipitation from COS-7 cells expressing flag-TBC1D7 and Myc-RAB17 (FIG. 4B). As for the experimental part: FIG. 4 depicts interaction of TBC1D7 with binding proteins. A, Interaction of exogenous TBC1D7 with endogenous 14-3-3 zeta protein in COS-7 cells. Immunoprecipitations were carried out using anti-flag M2 agarose and extracts from COS-7 cells transiently expressing flag-TBC1D7. Immunoprecipitates were subjected to western-blot analysis to detect endogenous 14-3-3. B, Interaction of exogenous TBC1D7 with exogenous RAB 17 protein in COS-7 cells. Immunoprecipitations were carried out using anti-flag M2 agarose and extracts from COS-7 cells transiently expressing flag-TBC1D7 and/or Myc-RAB17. Immunoprecipitates were subjected to western-blot analysis to detect exogenous RAB 17. IB, immunoblotting; IP, immunoprecipitation. C, Expression of TSC1 and TBC1D7 in lung cancer cells. […] Left panels, The levels of TSC1 and TBC1D7 transcripts and proteins, detected by semiquantitative RT-PCR analysis and western-blot analysis in LC319 cells transfected with si-TSC1. Right panels, The levels of TSC1 and TBC1D7 transcripts and proteins, detected by semiquantitative RT-PCR analysis and western-blot analysis in LC319 cells transfected with TSC1 expression vector. F, The levels of endogenous TSC1 and TBC1D7 proteins, detected by western blot analysis in LC319 cells that were initially transfected with si-TSC1, and were subsequently transfected with TSC1 expression vector 24 hours after the siRNA transfection. […]

Consider “si-TSC1: siRNA sequence against human TSC1: CGACACGGCUGAUAACUGA (SEQ ID NO: 20) (listed as RNA, chemistry not given here)”, for which the “levels of p-rpS6 (Ser235/236) protein” value in series [1] is on record as “not changed”. In the series with TSC1 (LC319 cells treated with si-TSC1, semiquantitative RT-PCR), the “transcription level of TBC1D7” value is recorded as “unchanged”. The TBC1D7 protein level entry in the series with TSC1 is recorded as “decreased”; in the series with TSC1 (listed as siRNA against TSC1) it was “Reduced levels”. In addition, the “expression of the endogenous TSC1” value with TSC1 (LC319 cells, in comparison to control siRNA (si-EGFP)) is recorded as “suppressed”.

B1: TBC112-171, N-terminal Flag-tagged TBC1D7 partial protein construct (other, not shown: small tags and cut ends)
chain: YQLESGKLPRSPSFPLEPDDEVFLAIAKAMEEMVEDSVDCYWITRRFVNQLNTKYRDSLP
In the case of B1, in series [2], the binding result is on record as “binds”.

B2: Myc-RAB17 (pcDNA3.1 Myc-His RAB17), exogenous RAB17 expressed in COS-7 cells (other)
chain: MAQAHRTPQPRAAPSQPRVFKLVLLGSGSVGKSSLALRYVKNDFKSILPTVGCAFFTKVVDVGATSLKLEIWDTAGQEKYHSVCHLYFRGANAALLVYDITRKDSFLKAQQWLKDLEEELHPGEVLVMLVGNKTDLSQEREVTFQEGKEFADSQKLLFMETSAKLNHQVSEVFNTVAQELLQRSDEEGQALRGDAAVALNKGPARQAKCCAH
notes: not shown: Myc-His tag of the pcDNA3.1 Myc-His vector
For the molecule B2, the binding result in series [3] is reported as “binds”.
